ChEMBL document CHEMBL1909046, “DrugMatrix in vitro pharmacology data”

How the values were obtained:
[1] = DRUGMATRIX: Calcium Channel Type L, Phenylalkylamine radioligand binding (ligand: [3H] (-)-Desmethoxyverapamil (D-888)); format: cell membranes, Rattus norvegicus, Wistar, Brain, Membrane; conditions: Not Active = under 50% inhibition at 10 µM
Melanocortin receptor 5 = Melanocortin receptor 5 (Homo sapiens, UniProt P33032); format: cell membranes, HEK293, Membrane; also: in other assays of this panel Not Active means under 50% inhibition at 10 µM
Chain of Melanocortin receptor 5 (P33032 whole entry): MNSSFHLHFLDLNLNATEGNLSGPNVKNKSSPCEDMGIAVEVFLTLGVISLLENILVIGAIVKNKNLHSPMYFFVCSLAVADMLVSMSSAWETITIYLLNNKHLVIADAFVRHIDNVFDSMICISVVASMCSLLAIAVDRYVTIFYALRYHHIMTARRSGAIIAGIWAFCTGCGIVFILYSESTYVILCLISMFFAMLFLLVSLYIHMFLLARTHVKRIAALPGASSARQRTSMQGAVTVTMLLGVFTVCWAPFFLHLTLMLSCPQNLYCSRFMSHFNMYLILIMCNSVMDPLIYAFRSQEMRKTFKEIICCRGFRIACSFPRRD

SMILES	IC50 [1]	Ki [1]	IC50 (Melanocortin receptor 5; hek293)	IC50 ([1]; read-out: IC50) [nM]	Ki ([1]; read-out: Ki) [nM]	IC50 (Melanocortin receptor 5; read-out: IC50) [nM]	Ki (Melanocortin receptor 5; read-out: Ki) [nM]
CC(O)CO (stereo not drawn) [PROPYLENE GLYCOL]	Not Active	Not Active	Not Active				
CC1Cc2ccccc2N1NC(=O)c1ccc(Cl)c(S(N)(=O)=O)c1 (stereo not drawn) [INDAPAMIDE]	Not Active	Not Active	Not Active				
c1ccc(Nc2ccc(Nc3ccccc3)cc2)cc1	Not Active	Not Active	Not Active				
COc1cc2nc(N3CCN(C(=O)C4COc5ccccc5O4)CC3)nc(N)c2cc1OC (stereo not drawn) [DOXAZOSIN]	Not Active	Not Active	Not Active				
CN(C)CCCN1c2ccccc2Sc2ccc(Cl)cc21 [CHLORPROMAZINE]				1530	1480	7620	7150
CC(C)(Oc1ccc(Cl)cc1)C(=O)O [CLOFIBRIC ACID]	Not Active	Not Active	Not Active				
CCC(C)n1ncn(-c2ccc(N3CCN(c4ccc(OCC5COC(Cn6cncn6)(c6ccc(Cl)cc6Cl)O5)cc4)CC3)cc2)c1=O (stereo not drawn) [ITRACONAZOLE]	Not Active	Not Active	Not Active				
Nc1nc2c(ncn2COCCO)c(=O)[nH]1 [ACYCLOVIR]	Not Active	Not Active	Not Active				
CCOC(=O)C1=C(COCCN)NC(C)=C(C(=O)OC)C1c1ccccc1Cl (stereo not drawn) [AMLODIPINE]	Not Active	Not Active	Not Active				
O=C1CC[C@@H](N2C(=O)c3ccccc3C2=O)C(=O)N1	Not Active	Not Active	Not Active				
CC(C)C(Br)C(=O)NC(N)=O (stereo not drawn) [BROMISOVALUM]	Not Active	Not Active	Not Active				
Cc1ccccc1N1C(=O)c2cc(S(N)(=O)=O)c(Cl)cc2NC1C (stereo not drawn) [METOLAZONE]	Not Active	Not Active	Not Active				
Nc1nc2c(ncn2CCC(CO)CO)c(=O)[nH]1 [PENCICLOVIR]	Not Active	Not Active	Not Active				
Nc1nc(N)nc(-c2cc(Cl)ccc2Cl)n1.O=C(O)/C=C\C(=O)O [IRSOGLADINE MALEATE]	Not Active	Not Active	Not Active				
Cc1ccc(/N=C/N(C)/C=N/c2ccc(C)cc2C)c(C)c1 [AMITRAZ]	Not Active	Not Active	Not Active				
Clc1cccc(Cl)c1NC1=NCCN1 [CLONIDINE]	Not Active	Not Active	Not Active				
OC(Cn1cncn1)(Cn1cncn1)c1ccc(F)cc1F [FLUCONAZOLE]	Not Active	Not Active	Not Active				
CCCC1O[C@@H]2C[C@H]3[C@@H]4CCC5=CC(=O)C=C[C@]5(C)[C@H]4[C@@H](O)C[C@]3(C)[C@]2(C(=O)CO)O1 (stereo partly drawn) [BUDESONIDE]	Not Active	Not Active	Not Active				
Cc1cc(C2CCCCC2)n(O)c(=O)c1 [CICLOPIROX]	Not Active	Not Active	Not Active				
Cc1c(C)c2c(c(C)c1O)CC[C@@](C)(CCC[C@H](C)CCC[C@H](C)CCCC(C)C)O2 [ALPHA-TOCOPHEROL]	Not Active	Not Active	Not Active				
CC1(C)S[C@@H]2[C@H](NC(=O)Cc3ccccc3)C(=O)N2[C@H]1C(=O)O [PENICILLIN G]	Not Active	Not Active	Not Active				
C[C@H](CCC(=O)O)[C@H]1CC[C@H]2[C@@H]3[C@H](O)C[C@@H]4C[C@H](O)CC[C@]4(C)[C@H]3C[C@H](O)[C@]12C [CHOLIC ACID]	Not Active	Not Active	Not Active				

SMILES	IC50 [1]	Ki [1]	IC50 (Melanocortin receptor 5; hek293)	IC50 ([1]; read-out: IC50) [nM]	Ki ([1]; read-out: Ki) [nM]	IC50 (Melanocortin receptor 5; read-out: IC50) [nM]	Ki (Melanocortin receptor 5; read-out: Ki) [nM]
N=C(N)NCCN1CCCCCCC1 [GUANETHIDINE]	Not Active	Not Active	Not Active				
CNCCc1ccccn1 [BETAHISTINE]	Not Active	Not Active	Not Active				
O=C(O)CCCc1ccc(N(CCCl)CCCl)cc1 [CHLORAMBUCIL]	Not Active	Not Active	Not Active				
NCCCCCC(=O)O [AMINOCAPROIC ACID]	Not Active	Not Active	Not Active				
CC1(C)O[C@@H]2C[C@H]3[C@@H]4CCC5=CC(=O)CC[C@]5(C)[C@@]4(F)[C@@H](O)C[C@]3(C)[C@]2(C(=O)CCl)O1 [HALCINONIDE]	Not Active	Not Active	Not Active				
COc1cc2c3cc1Oc1cc(ccc1O)C[C@@H]1c4c(cc(OC)c(O)c4Oc4ccc(cc4)C[C@@H]3N(C)CC2)CC[N+]1(C)C.[Cl-]	Not Active	Not Active	Not Active				
Cc1onc(-c2ccccc2Cl)c1C(=O)N[C@@H]1C(=O)N2[C@@H]1SC(C)(C)[C@@H]2C(=O)O [CLOXACILLIN]	Not Active	Not Active	Not Active				
CC(=O)O[C@@]12CO[C@@H]1C[C@H](O)[C@@]1(C)C(=O)[C@H](O)C3=C(C)[C@@H](OC(=O)[C@H](O)[C@@H](NC(=O)OC(C)(C)C)c4ccccc4)C[C@@](O)([C@@H](OC(=O)c4ccccc4)[C@H]21)C3(C)C.O.O.O [DOCETAXEL]	Not Active	Not Active	Not Active				
C[C@](N)(Cc1ccc(O)c(O)c1)C(=O)O [METHYLDOPA]	Not Active	Not Active	Not Active				
O=C(CCCN1CC=C(n2c(=O)[nH]c3ccccc32)CC1)c1ccc(F)cc1 [DROPERIDOL]			Not Active	4160	4050		
CN(C)CCCN1c2ccccc2Sc2ccccc21 [PROMAZINE]			Not Active	1190	1160		
CN(C)c1nc(N(C)C)nc(N(C)C)n1 [ALTRETAMINE]	Not Active	Not Active	Not Active				
CC1CC(OC(=O)C(O)c2ccccc2)CC(C)(C)C1 (stereo not drawn) [CYCLANDELATE]	Not Active	Not Active	Not Active				
CC[C@@]1(O)C[C@H](O[C@H]2C[C@H](N(C)C)[C@H](O[C@H]3C[C@H](O)[C@H](O[C@H]4CCC(=O)[C@H](C)O4)[C@H](C)O3)[C@H](C)O2)c2c(cc3c(c2O)C(=O)c2c(O)cccc2C3=O)[C@H]1C(=O)OC [ACLARUBICIN]	Not Active	Not Active	Not Active				
CCn1cc(C(=O)O)c(=O)c2cc(F)c(N3CCNCC3)cc21 [NORFLOXACIN]	Not Active	Not Active	Not Active				
Cc1c(O)c(=O)ccn1C [DEFERIPRONE]	Not Active	Not Active	Not Active				
NC1=NC(=O)C(c2ccccc2)O1 (stereo not drawn) [PEMOLINE]	Not Active	Not Active	Not Active				
Sc1ncnc2nc[nH]c12 [MERCAPTOPURINE ANHYDROUS]	Not Active	Not Active	Not Active				
COCCc1ccc(OCC(O)CNC(C)C)cc1 (stereo not drawn) [METOPROLOL]	Not Active	Not Active	Not Active				
O=c1[nH]c(=O)n([C@H]2C[C@H](O)[C@@H](CO)O2)cc1I [IDOXURIDINE]	Not Active	Not Active	Not Active				
CNNCc1ccc(C(=O)NC(C)C)cc1 [PROCARBAZINE]	Not Active	Not Active	Not Active				
CC(C)C(=O)Nc1ccc([N+](=O)[O-])c(C(F)(F)F)c1 [FLUTAMIDE]	Not Active	Not Active	Not Active				
